Experimental data reported in patent US9351484B2, “N-alkyl lactam ethers, and compositions and uses thereof” (priority 2010, dated 2016).
Entries after “also recorded” stand apart in the source; their conditions may differ. Where two headings read alike, the source gives them in different places.

Columns and labels:
[1] = Gas hydrate inhibitor and anti-agglomerant test; settings: 0.5% and 1.0% (w/w NaCl brine solution), 123 bar, 2.8° C.
Method: Bis-N-ethyl pyrrolidone ether was assessed as a gas hydrate inhibitor and as an anti-agglomerant. A three-part fluid blend was prepared having equal mass amounts of Troika crude oil (black oil), synthetic condensate, and a sodium chloride brine solution into which the ether was dissolved. Ether addition levels were studied two times at 0.5% (w/w NaCl brine solution), and one time at 1.0% (w/w NaCl brine solution). The abovementioned fluid blend blanketed with Green Canyon gas (Table 6) at a pressure of 123 bar and maintained at 2.8° C. for the tests.

[2] = Freezing points of bis-N-ethyl pyrrolidone ether/water blends by differential scanning calorimetry; format: physicochemical
Method: The freezing points of bis-N-ethyl pyrrolidone ether/water blends were measured using differential scanning calorimetry. All measurements were conducted under nitrogen purge from 25° C. to −80° C. at a cooling rate of 5° C./min using a Q2000 calorimeter by TA Instruments.
Freezing depressions were measured for bis-N-ethyl pyrrolidone ether/water blends (Table 3).

[3] = equal volume ratio
Description: The blends were visually observed to determine miscibility of the ether with the various solvents.

[4] = Aqueous behavior of ether/water blends, pH 1 to 13, chilled; format: physicochemical; settings: equal mass ratio with water, pH adjusted from 1 to 13, chilled to −15° C.
Method: The blends were pH adjusted from 1 to 13 and then chilled to −15° C.

[5] = Freezing point depression of glycerol (or other polyol)-water blends with added ether; format: physicochemical
Method: Different binary blends of glycerol and water are prepared, and then bis-N-ethyl pyrrolidone ether is added in 1% increments from 0% to 50% of the ether. The freezing point depression of these compositions is measured using a suitable differential thermometer (e.g., a thermocouple).
As a specific subclass to Example 5, a eutectic blend of glycerol-water is prepared, having about 65% glycerol (by weight) and a freezing point depression of about −46° C. Bis-N-ethyl pyrrolidone ether is added in 1% increments from 0% to 50% added ether. The freezing point depression of these compositions is measured using a suitable differential thermometer (e.g., a thermocouple).
[…], replacing glycerol with ethylene glycol, propylene glycol, or pentaerythritol.

[6] = cited from earlier work

O=C1CCCN1CCOCCN1CCCC1=O [bis-N-ethyl pyrrolidone ether]
formation of gas hydrates and agglomerants [1]: considerably limited gas hydrate formation; also recorded: very small
freezing point ([2]; 1% in water (by mass)): −9.3 °C
freezing point ([2]; 5% in water (by mass)): −7.9 °C
freezing point ([2]; 10% in water (by mass)): −13.5 °C
freezing point ([2]; 20% in water (by mass)): −13.3 °C
freezing point ([2]; 30% in water (by mass)): −18.2 °C
freezing point ([2]; 40% in water (by mass)): −28.6 °C
freezing point ([2]; 50% in water (by mass)): −43.2 °C
freezing point ([2]; 60% in water (by mass)): <−80 °C
freezing point ([2]; 66% in water (by mass)): <−80 °C
freezing point ([2]; 75% in water (by mass)): <−80 °C
freezing point ([2]; 100% bis-N-ethyl pyrrolidone ether): <−80 °C
miscibility observation ([3]; 2-propanol): miscible
miscibility observation ([3]; acetone): miscible
miscibility observation ([3]; cyclohexane): immiscible
miscibility observation ([3]; cyclohexane, listed as bis-N-ethyl pyrrolidone): insoluble
miscibility observation ([3]; ethyl acetate): miscible
miscibility observation ([3]; hexane): immiscible
miscibility observation ([3]; hexane, listed as bis-N-ethyl pyrrolidone): insoluble
miscibility observation ([3]; methanol): miscible
miscibility observation ([3]; methyl ethyl ketone): miscible
miscibility observation ([3]; toluene): miscible
miscibility observation ([3]; water): miscible
pH in a 50% aqueous solution (50% aqueous solution): 9.5
viscosity (Cannon Fenske viscometer, #300 tube): 96.4 cP^†
color (APHA) (neat): >500
freezing point (neat): <−80 °C
refractive index (neat): around 1.51
specific gravity (neat): 1.148
thermal decomposition temperature (neat): 275 °C
physical state (neat, ambient conditions): liquid (ambient conditions)
refractive index (neat, listed as bis-N-ethyl pyrrolidone): 1.5063
surface tension (static) (plate): 50.2
surface tension (static) (ring): 51.1
phase behavior of blend with water [4]: single phase
freezing point depression ([5]; ether added 0% to 50% to eutectic glycerol-water blend (about 65% glycerol)): lower than −46 °C
freezing point depression compared to glycerol-water binary blends ([5]; ether added 0% to 50% to glycerol-water blends): further depress the freezing point depression
freezing point depression compared to solutions without the ether ([5]; glycerol replaced with ethylene glycol, propylene glycol, or pentaerythritol): lowers the freezing point depression

OCCO [ethylene glycol]
freezing point ([6]; 11% in water (by mass)): −3 °C
freezing point ([6]; 22% in water (by mass)): −8 °C
freezing point ([6]; 32% in water (by mass)): −16 °C
freezing point ([6]; 43% in water (by mass)): −25 °C
freezing point ([6]; 53% in water (by mass)): −37 °C
freezing point ([6]; 63% in water (by mass)): −55 °C
freezing point ([6]; ethylene glycol and water in equal mass ratio): −32 °C
